What all share (conditions): incubation time: 72 h
In assay [1] the test system is CAL-120. The assay can be described thus: normalised viability (% of control), CellTiter-Blue; higher = more viable cells (100 = DMSO, 0 = benzethonium chloride kill control). How it is done: (§1)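 DSRT, CellTiter-Blue viability, 72 h incubation. Signal is normalised to DMSO and benzethonium chloride controls. Value is the normalised response at dose 1.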
For assay [2], the system named is Hs578T. The assay is described as above. The protocol:
as §1

In assay [3] the test system is MDA-MB-436. The assay is described as above. How it is done: as §1
Assay [4] deals with CAL-51. Described as above. The protocol:
as §1

Assay [5] concerns MFM-223. The description is as above. How it is done:
as §1

Assay [6] concerns SK-BR-3. The description is as above. The protocol: as §1
Assay [7] concerns HDQ-P1. The assay is described as above. How it is done:
as §1

Assay [8] concerns HCC1599. The description is as above. The protocol: as §1
Assay [9] has as its system DU-4475. The assay is described as above. The protocol:
as §1

For assay [10], the system named is MDA-MB-453. The description is as above. How it is done: as §1
The subject of assay [11] is BT-549. The assay is described as above. How it is done:
as §1

For assay [12], the system named is HCC1937. The description is as above. The protocol:
as §1

The test system of assay [13] is CAL-85-1. The description is as above. How it is done: as §1
Assay [14] has as its system MDA-MB-468. The description is as above. How it is done:
as §1

For assay [15], the system named is MDA-MB-231. The assay is described as above. How it is done: as §1
Assay [16] relates to BT-474. The description is as above. How it is done:
as §1

Assay [17] has as its system CAL-148. The assay is described as above. The protocol:
as §1

For assay [18], the system named is HCC1143. The assay is described as above. The protocol:
as §1

Assay [19] concerns CAL-120. Description: normalised response (% of control), CellTiter-Glo; higher = more viable cells (100 = DMSO, 0 = benzethonium chloride kill control). The gist of the method:
(§2)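 Breast cancer cell lines, seeded at 20 µl suspension per well, were incubated for 72 h in 384-well plates containing compound at 5 concentrations. These concentrations rose in 10-fold steps over a 10,000-fold range set for each compound. CellTox Green fluorescence (485/520 nm) was read, then CellTiter-Glo luminescence after 10 min at room temperature, and each plate was normalised to 0.1 % DMSO (100) and a positive kill control (0). Values are normalised signals, each at one concentration.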
(In general: ATP-based viability assays read luminescence as a measure of living cells.)

Assay [20] concerns Hs578T. The description is as above. The gist of the method:
as §2

Assay [21] relates to MDA-MB-436. The description is as above. The gist of the method: as §2
Assay [22] concerns CAL-51. Described as above. The gist of the method: as §2
Assay [23] concerns MFM-223. The description is as above. The gist of the method:
as §2

In assay [24] the test system is SK-BR-3. The assay is described as above. The gist of the method:
as §2

For assay [25], the system named is HDQ-P1. Described as above. The gist of the method: as §2
The test system of assay [26] is HCC1599. Described as above. The gist of the method: as §2
Another assay concerns MCF-10A. Described as above. The gist of the method: as §2
Assay [27] has as its system DU-4475. Described as above. The gist of the method:
as §2

Assay [28] relates to MDA-MB-453. Described as above. The gist of the method:
as §2

In assay [29] the test system is BT-549. The description is as above. The gist of the method: as §2
The subject of assay [30] is HCC1937. The description is as above. The gist of the method:
as §2

Assay [31] relates to CAL-85-1. The description is as above. The gist of the method: as §2
Assay [32] has as its system MDA-MB-468. The description is as above. The gist of the method:
as §2

Assay [33] relates to MDA-MB-231. The assay is described as above. The gist of the method: as §2
The subject of assay [34] is BT-474. The description is as above. The gist of the method: as §2
Assay [35] has as its system CAL-148. Described as above. The gist of the method: as §2
In assay [36] the test system is HCC1143. The assay is described as above. The gist of the method:
as §2

This note sets out measurements from the supplement of paper PMC4862054.

Where “and” joins values, the source holds several entries; their conditions need not be identical. Equal entries are not always repeated.

Take `Nc1cc(C(F)(F)F)c(-c2cc(N3CCOCC3)nc(N3CCOCC3)n2)cn1` [BKM-120] (1 nM): the normalised viability in the assay with CAL-120 [1] amounted to 85.6%; in the assay on Hs578T [2], 121%; in the assay with MDA-MB-436 [3], 104%; in the assay with CAL-51 [4], 98%; in the assay with MFM-223 [5], 93%; in the assay with SK-BR-3 [6], 99.7%. Besides, the normalised viability in the assay on HDQ-P1 [7] was 99%; in the assay with HCC1599 [8], 82.8%; in the assay with DU-4475 [9], 114%; in the assay with MDA-MB-453 [10], 103%; in the assay with BT-549 [11], 97.8%; with HCC1937 [12] it was 95.9%. Besides, the normalised viability is 89.5% in the assay with CAL-85-1 [13]; 96.6% in the assay on MDA-MB-468 [14]; 110% in the assay on MDA-MB-231 [15]; 116% in the assay on BT-474 [16]; 105% in the assay on CAL-148 [17]; 88.4% with HCC1143 [18].

Turning to `S=P(N1CC1)(N1CC1)N1CC1` [Thio-TEPA] (10 nM), the normalised viability in the assay on CAL-120 [1] worked out at 86.2%; in the assay with Hs578T [2], 106%; with MDA-MB-436 [3], 99.2%; in the assay with CAL-51 [4], 94%; with MFM-223 [5], 101%; in the assay on SK-BR-3 [6] it was 92.1%. Further, the normalised viability in the assay on HDQ-P1 [7] came to 109%; in the assay on HCC1599 [8] it was 95.7%; with DU-4475 [9] it was 88.7%; in the assay with MDA-MB-453 [10] it was 104%; in the assay on BT-549 [11], 106%; with HCC1937 [12], 90%. Also, the normalised viability with CAL-85-1 [13] came out at 92.8%; in the assay with MDA-MB-468 [14], 107%; with MDA-MB-231 [15], 94.8%; in the assay on BT-474 [16], 100%; in the assay with CAL-148 [17] it was 102%; in the assay on HCC1143 [18], 97.9%.

`COC(=O)c1ccc2c(c1)NC(=O)/C2=C(\Nc1ccc(N(C)C(=O)CN2CCN(C)CC2)cc1)c1ccccc1` [BIBF 1120] (1 nM): the normalised viability turned out to be 83.6% in the assay on CAL-120 [1]; 109% with Hs578T [2]; 114% in the assay with MDA-MB-436 [3]; 99.7% in the assay with CAL-51 [4]; 91.8% in the assay with MFM-223 [5]; 93.3% in the assay on SK-BR-3 [6]. The normalised viability was found to be 114% in the assay on HDQ-P1 [7]; 87.2% in the assay on HCC1599 [8]; 112% in the assay on DU-4475 [9]; 101% with MDA-MB-453 [10]; 119% in the assay on BT-549 [11]; 117% in the assay with HCC1937 [12]. The normalised viability was found to be 94.3% in the assay with CAL-85-1 [13]; 108% in the assay on MDA-MB-468 [14]; 129% with MDA-MB-231 [15]; 124% in the assay with BT-474 [16]; 105% with CAL-148 [17]; 95.7% with HCC1143 [18].

Consider `CCc1c2c(nc3ccc(OC(=O)N4CCC(N5CCCCC5)CC4)cc13)-c1cc3c(c(=O)n1C2)COC(=O)[C@]3(O)CC` [Irinotecan] (1 nM), for which the normalised viability in the assay on MDA-MB-436 [3] was 97.6% and 117%; with CAL-51 [4] it was 106% and 112%; in the assay with MFM-223 [5], 93.6% and 104%; with SK-BR-3 [6] it was 84.7% and 99.9%; in the assay with HDQ-P1 [7], 89% and 101%; with DU-4475 [9] it was 98.7% and 106%. The normalised viability in the assay with BT-549 [11] was 95.7% and 90.7%; in the assay with CAL-85-1 [13] it was 83% and 98.7%; in the assay on MDA-MB-468 [14], 96.8% and 102%; in the assay with MDA-MB-231 [15], 82.3% and 98.2%; with BT-474 [16], 103% and 98%; in the assay on CAL-148 [17] it was 91.5% and 110%. Further, in the assay with HCC1143 [18], the normalised viability was 87.2% and 101%. The normalised response turned out to be 94.2% with CAL-120 [19]; 95.9% in the assay on Hs578T [20]; 97.9% in the assay with MDA-MB-436 [21]; 81.6% in the assay on CAL-51 [22]; 94% with MFM-223 [23]; 110% in the assay on SK-BR-3 [24]. The normalised response with HDQ-P1 [25] is 97.3%; in the assay with HCC1599 [26], 105%; in the assay on MCF-10A, 96.5%; in the assay on DU-4475 [27], 104%; in the assay on MDA-MB-453 [28], 114%; with BT-549 [29], 109%. In addition, the normalised response with HCC1937 [30] worked out at 97.2%; with CAL-85-1 [31], 116%; with MDA-MB-468 [32], 107%; in the assay on MDA-MB-231 [33], 90.3%; with BT-474 [34] it was 98.5%; in the assay with CAL-148 [35] it was 98.3%. In the assay with HCC1143 [36], this compound came in with a normalised response of 93.9%.

As for `COc1cc2ncnc(Nc3ccc(F)c(Cl)c3)c2cc1OCCCN1CCOCC1` [Gefitinib] (1 nM), the normalised viability in the assay with CAL-120 [1] is 77.2% and 85.9%; in the assay on MDA-MB-436 [3], 92.2% and 90.9%; in the assay with CAL-51 [4], 108% and 107%; in the assay on MFM-223 [5], 89.3% and 83.4%; in the assay with SK-BR-3 [6] it was 87.4% and 97.4%; in the assay on HDQ-P1 [7] it was 108% and 86.3%. Besides, the normalised viability in the assay with HCC1599 [8] was 85.7% and 96.3%; with DU-4475 [9] it was 104% and 98.6%; with MDA-MB-453 [10], 97.3% and 100%; in the assay with BT-549 [11], 120% and 111%; in the assay on HCC1937 [12], 91.6% and 89.4%; with CAL-85-1 [13] it was 85.3% and 81.5%. Further, the normalised viability with MDA-MB-468 [14] was 90% and 110%; in the assay on MDA-MB-231 [15], 94.2% and 90.6%; in the assay on CAL-148 [17] it was 107% and 106%; in the assay on HCC1143 [18] it was 73.7% and 90.5%. Also, the normalised response is 97.6% in the assay with CAL-120 [19]; 99% with Hs578T [20]; 85.5% in the assay with MDA-MB-436 [21]; 93.1% in the assay with CAL-51 [22]; 105% in the assay with MFM-223 [23]; 108% in the assay on SK-BR-3 [24]. For the same compound, the normalised response is 94.4% with HDQ-P1 [25]; 99.2% in the assay on HCC1599 [26]; 98.8% in the assay with MCF-10A; 99.3% in the assay on DU-4475 [27]; 109% with MDA-MB-453 [28]; 94.8% with BT-549 [29]. The normalised response was 91.6% in the assay with HCC1937 [30]; 101% in the assay on CAL-85-1 [31]; 105% in the assay with MDA-MB-468 [32]; 97.2% in the assay on MDA-MB-231 [33]; 97.7% in the assay with BT-474 [34]; 107% with CAL-148 [35]. In the assay with HCC1143 [36], this compound displayed a normalised response of 102%.

On to `Cc1cc(Nc2cc(CN3CCOCC3)c3nc(C)c(Cc4ccc(Cl)cc4F)n3n2)n[nH]1` (1 nM), for which the normalised viability in the assay with CAL-120 [1] amounted to 86.9%; in the assay with Hs578T [2], 107%; in the assay with MDA-MB-436 [3], 87.7%; with CAL-51 [4] it was 98%; in the assay with MFM-223 [5], 93.8%; in the assay on SK-BR-3 [6] it was 104%. Also, the normalised viability is 65.2% with HDQ-P1 [7]; 110% with HCC1599 [8]; 119% in the assay on DU-4475 [9]; 85.3% in the assay on MDA-MB-453 [10]; 97.8% in the assay on BT-549 [11]; 85.9% in the assay on HCC1937 [12]. The normalised viability turned out to be 82.1% in the assay on CAL-85-1 [13]; 103% with MDA-MB-468 [14]; 89.5% in the assay on MDA-MB-231 [15]; 92.4% in the assay with BT-474 [16]; 95.6% in the assay on CAL-148 [17]; 88.6% in the assay on HCC1143 [18].
